Columns and labels:
soybean [1] = experiment: preemergence herbicidal activity on soybean; format: in vivo, Glycine max var. Winchester; details: Glycine max, pre-emergence, 0.3 Kg/Ha, after 12-17 days, read-out: PREEMERGENCE HERBICIDAL ACTIVITY (% CONTROL) SOY
Description: (§1) The (oxaalkyl)phenyl-substituted heterocycles of this invention were tested for pre- and postemergence herbicidal activity using a variety of crops and weeds. The test plants included soybean (Glycine max var. Winchester),field corn (Zea mays var. Pioneer 3732), wheat (Triticum aestivum var. Lew), morningglory (Ipomea lacunosa or Ipomea hederacea), […] (Abutilon theophrasti), green foxtail (Setaria viridis), Johnsongrass (Sorghum halepense), blackgrass (Aloepecurus myosuroides), common chickweed (Stellaria media), and common cocklebur (Xanthium strumarium L.).
(§2) For preemergence testing, two disposable fiber flats (8 cm×15 cm×25 cm) for each rate of application of each candidate herbicide were filled to an approximate depth of 6.5 cm with steam-sterilized sandy loam soil. The soil was leveled and impressed with a template to provide five evenly spaced furrows 13 cm long and 0.5 cm deep in each flat. Seeds of soybean, wheat, corn, green foxtail, and johnsongrass were planted in the furrows of the first flat, and seeds of velvetleaf, morningglory, common chickweed, cocklebur, and blackgrass were planted in the furrows of the second flat. The five-row template was employed to firmly press the seeds into place. A topping soil of equal portions of sand and sandy loam soil was placed uniformly on top of each flat to a depth of approximately 0.5 cm. Flats for postemergence testing were prepared in the same manner except that they were planted 9-14 days prior to the preemergence flats and were placed in a greenhouse and watered, thus allowing the seeds to germinate and the foliage to develop.
(§3) In both pre- and postemergence tests, a stock solution of the candidate herbicide was prepared by dissolving 0.27 g of the compound in 20 mL of water/acetone (50/50) containing 0.5% v/v sorbitan monolaurate. For an application rate of 3000 g/ha of herbicide a 10 mL portion of the stock solution was diluted with water/acetone (50/50) to 45 mL.
(§4) The preemergence flats were initially subjected to a light water spray. The four flats were placed two by two along a conveyor belt (i.e., the two preemergence followed by the two postemergence flats). The conveyor belt fed under a spray nozzle mounted about ten inches above the postemergent foliage. The preemergent flats were elevated on the belt so that the soil surface was at the same level below the spray nozzle as the foliage canopy of the postemergent plants. The spray of herbicidal solution was commenced and once stabilized, the flats were passed under the spray at a speed to receive a coverage equivalent of 1000 L/ha. At this coverage the application rates are those shown in the above table for the individual herbicidal solutions. The preemergence flats were watered immediately thereafter, placed in the greenhouse and watered regularly at the soil surface. The postemergence flats were immediately placed in the green-house and not watered until 24 hours after treatment with the test solution. Thereafter they were regularly watered at ground level. After 12-17 days the plants were examined and the phytotoxicity data were recorded.
(§5) Phytotoxicity data were taken as percent control. Percent control was by a method similar to the 0 to 1 00 rating system disclosed in "Research Methods in Weed Science," 2nd ed., B. Truelove, Ed.; Southern Weed Science Society; Auburn University, Auburn, Ala., 1977.

wheat [2] = experiment: preemergence herbicidal activity on wheat; format: in vivo, Triticum aestivum var. Lew; details: Triticum aestivum, pre-emergence, 0.3 Kg/Ha, after 12-17 days, read-out: PREEMERGENCE HERBICIDAL ACTIVITY (% CONTROL) WHT
Description: as §1, §2, §3, §4, §5

corn [3] = experiment: preemergence herbicidal activity on corn; format: in vivo, Zea mays var. Pioneer 3732; details: Zea mays, pre-emergence, 0.3 Kg/Ha, after 12-17 days, read-out: PREEMERGENCE HERBICIDAL ACTIVITY (% CONTROL) CRN
Description: as §1, §2, §3, §4, §5

velvetleaf [4] = experiment: preemergence herbicidal activity on velvetleaf; format: in vivo; details: Abutilon theophrasti, pre-emergence, 0.3 Kg/Ha, after 12-17 days, read-out: PREEMERGENCE HERBICIDAL ACTIVITY (% CONTROL) ABUTH
Description: as §1, §2, §3, §4, §5

morningglory [5] = experiment: preemergence herbicidal activity on morningglory; format: in vivo, Ipomea lacunosa or Ipomea hederacea; details: Ipomoea, pre-emergence, 0.3 Kg/Ha, after 12-17 days, read-out: PREEMERGENCE HERBICIDAL ACTIVITY (% CONTROL) IPOSS
Description: as §1, §2, §3, §4, §5

chickweed [6] = experiment: preemergence herbicidal activity on chickweed; format: in vivo; details: Stellaria media, pre-emergence, 0.3 Kg/Ha, after 12-17 days, read-out: PREEMERGENCE HERBICIDAL ACTIVITY (% CONTROL) STEME
Description: as §1, §2, §3, §4, §5

blackgrass [7] = experiment: preemergence herbicidal activity on blackgrass; format: in vivo, Aloepecurus myosuroides; details: Alopecurus myosuroides, pre-emergence, 0.3 Kg/Ha, after 12-17 days, read-out: PREEMERGENCE HERBICIDAL ACTIVITY (% CONTROL) ALOMY
Description: as §1, §2, §3, §4, §5

green foxtail [8] = experiment: preemergence herbicidal activity on green foxtail; format: in vivo; details: Setaria viridis, pre-emergence, 0.3 Kg/Ha, after 12-17 days, read-out: PREEMERGENCE HERBICIDAL ACTIVITY (% CONTROL) SETVI
Description: as §1, §2, §3, §4, §5

johnsongrass [9] = experiment: preemergence herbicidal activity on johnsongrass; format: in vivo; details: Sorghum halepense, pre-emergence, 0.3 Kg/Ha, after 12-17 days, read-out: PREEMERGENCE HERBICIDAL ACTIVITY (% CONTROL) SORHA
Description: as §1, §2, §3, §4, §5

soybean [10] = experiment: postemergence herbicidal activity on soybean; format: in vivo, Glycine max var. Winchester; details: Glycine max, post-emergence, 0.3 Kg/Ha, after 12-17 days, read-out: POSTEMERGENCE HERBICIDAL ACTIVITY (% CONTROL) SOY
Description: as §1, §2, §3, §4, §5

wheat [11] = experiment: postemergence herbicidal activity on wheat; format: in vivo, Triticum aestivum var. Lew; details: Triticum aestivum, post-emergence, 0.3 Kg/Ha, after 12-17 days, read-out: POSTEMERGENCE HERBICIDAL ACTIVITY (% CONTROL) WHT
Description: as §1, §2, §3, §4, §5

corn [12] = experiment: postemergence herbicidal activity on corn; format: in vivo, Zea mays var. Pioneer 3732; details: Zea mays, post-emergence, 0.3 Kg/Ha, after 12-17 days, read-out: POSTEMERGENCE HERBICIDAL ACTIVITY (% CONTROL) CRN
Description: as §1, §2, §3, §4, §5

velvetleaf [13] = experiment: postemergence herbicidal activity on velvetleaf; format: in vivo; details: Abutilon theophrasti, post-emergence, 0.3 Kg/Ha, after 12-17 days, read-out: POSTEMERGENCE HERBICIDAL ACTIVITY (% CONTROL) ABUTH
Description: as §1, §2, §3, §4, §5

morningglory [14] = experiment: postemergence herbicidal activity on morningglory; format: in vivo, Ipomea lacunosa or Ipomea hederacea; details: Ipomoea, post-emergence, 0.3 Kg/Ha, after 12-17 days, read-out: POSTEMERGENCE HERBICIDAL ACTIVITY (% CONTROL) IPOSS
Description: as §1, §2, §3, §4, §5

chickweed [15] = experiment: postemergence herbicidal activity on chickweed; format: in vivo; details: Stellaria media, post-emergence, 0.3 Kg/Ha, after 12-17 days, read-out: POSTEMERGENCE HERBICIDAL ACTIVITY (% CONTROL) STEME
Description: as §1, §2, §3, §4, §5

cocklebur = experiment: postemergence herbicidal activity on cocklebur; format: in vivo, Xanthium strumarium L.; details: Xanthium strumarium, post-emergence, 0.3 Kg/Ha, after 12-17 days, read-out: POSTEMERGENCE HERBICIDAL ACTIVITY (% CONTROL) XANPE
Description: as §1, §2, §3, §4, §5

blackgrass [16] = experiment: postemergence herbicidal activity on blackgrass; format: in vivo, Aloepecurus myosuroides; details: Alopecurus myosuroides, post-emergence, 0.3 Kg/Ha, after 12-17 days, read-out: POSTEMERGENCE HERBICIDAL ACTIVITY (% CONTROL) ALOMY
Description: as §1, §2, §3, §4, §5

green foxtail [17] = experiment: postemergence herbicidal activity on green foxtail; format: in vivo; details: Setaria viridis, post-emergence, 0.3 Kg/Ha, after 12-17 days, read-out: POSTEMERGENCE HERBICIDAL ACTIVITY (% CONTROL) SETVI
Description: as §1, §2, §3, §4, §5

johnsongrass [18] = experiment: postemergence herbicidal activity on johnsongrass; format: in vivo; details: Sorghum halepense, post-emergence, 0.3 Kg/Ha, after 12-17 days, read-out: POSTEMERGENCE HERBICIDAL ACTIVITY (% CONTROL) SORHA
Description: as §1, §2, §3, §4, §5

Row | Structure (SMILES) | activity at 300 g/ha (soybean [1]) [%] | activity at 300 g/ha (wheat [2]) [%] | activity at 300 g/ha (corn [3]) [%] | activity at 300 g/ha (velvetleaf [4]) [%] | activity at 300 g/ha (morningglory [5]) [%] | activity at 300 g/ha (chickweed [6]) [%] | activity at 300 g/ha (blackgrass [7]) [%] | activity at 300 g/ha (green foxtail [8]) [%] | activity at 300 g/ha (johnsongrass [9]) [%] | activity at 300 g/ha (soybean [10]) [%] | activity at 300 g/ha (wheat [11]) [%] | activity at 300 g/ha (corn [12]) [%] | activity at 300 g/ha (velvetleaf [13]) [%] | activity at 300 g/ha (morningglory [14]) [%] | activity at 300 g/ha (chickweed [15]) [%] | activity at 300 g/ha (cocklebur) [%] | activity at 300 g/ha (blackgrass [16]) [%] | activity at 300 g/ha (green foxtail [17]) [%] | activity at 300 g/ha (johnsongrass [18]) [%]
1 | CNC(=O)OCC(Cl)Cc1cc(-n2nc(C)n(C(F)F)c2=O)c(F)cc1Cl (stereo not drawn) [Compound 31, 2-CHLORO-1-[2-CHLORO-4-FLUORO-5-[4DIFLUOROMETHYL-4,5-DIHYDRO-3-METHYL-1,2,4-TRIAZOL-5(1H)-ON-1-YL]PHENYL]PROPAN-3-YL METHYLCARBAMATE] | 100 | 70 | 90 | 100 | 100 | 100 | 70 | 100 | 100 | 95 | 50 | 85 | 100 | 100 | 100 | 100 | 75 | 100 | 100
2 | CCNC(=O)OCC(Cl)Cc1cc(-n2nc(C)n(C(F)F)c2=O)c(F)cc1Cl (stereo not drawn) [Compound 32] | 100 | 40 | 70 | 100 | 95 | 90 | 75 | 100 | 95 | 95 | 40 | 80 | 100 | 95 | 100 | 100 | 70 | 100 | 90
3 | Cc1nn(-c2cc(CC(Cl)COC(=O)NC(C)(C)C)c(Cl)cc2F)c(=O)n1C(F)F (stereo not drawn) [Compound 33] | 60 | 20 | 80 | 100 | 70 | 90 | 70 | 100 | 80 | 90 | 40 | 80 | 100 | 100 | 80 | 100 | 60 | 100 | 80
4 | Cc1nn(-c2cc(CC(Cl)COC(=O)NC(C)C)c(Cl)cc2F)c(=O)n1C(F)F (stereo not drawn) [Compound 34] | 80 | 50 | 70 | 100 | 100 | 100 | 60 | 100 | 100 | 90 | 50 | 85 | 100 | 90 | 75 | 100 | 65 | 100 | 95
5 | Cc1nn(-c2cc(CC(Cl)COC(=O)NC3CCCCC3)c(Cl)cc2F)c(=O)n1C(F)F (stereo not drawn) [Compound 35] | 30 | 20 | 10 | 100 | 90 | 100 | 30 | 100 | 50 | 80 | 25 | 70 | 100 | 80 | 30 | 100 | 30 | 80 | 60
6 | CCCCCCNC(=O)OCC(Cl)Cc1cc(-n2nc(C)n(C(F)F)c2=O)c(F)cc1Cl (stereo not drawn) [Compound 36] | 70 | 30 | 30 | 100 | 100 | 60 | 50 | 100 | 70 | 80 | 30 | 80 | 100 | 100 | 100 | 100 | 50 | 80 | 75

Source: patent USH1923H, “Herbicidal (oxaalkyl) phenyl-substituted heterocycles” (FMC Corporation, priority 1998, dated 2000)
